According to patent publication US20230265151A1, “GIP/GLP1 CO-AGONIST COMPOUNDS” (priority 2020, published 2023):
Where two headings read alike, the source gives them in different places. *1 amine or outer side, *2 acyl side, *3 side chain or, on linkers, in order; H or OH if unused. Where a SMILES comes first, the peptide text is derived from it. Side-chain parts run from the residue outwards. [ ]: non-standard residue; d: D form. The star is where a group is joined. αMePhe(2-F) = C[C@](N)(Cc1ccccc1F)C(=O)O; γGlu = O=C(O)[C@H](CCC(=O)[*:2])N[*:1]; αMeY = C[C@](N)(Cc1ccc(O)cc1)C(=O)O; αMeF = C[C@](N)(Cc1ccccc1)C(=O)O; 4Pal = N[C@@H](Cc1ccncc1)C(=O)O; αMeL = CC(C)C[C@](C)(N)C(=O)O; Lauroyl = CCCCCCCCCCCC(=O)*; Orn = NCCC[C@H](N)C(=O)O; AEEA = NCCOCCOCC(=O)O; Aib = CC(C)(N)C(=O)O

Tests used:
Assay type in all cases: cell-based
hGCGR = molecular target: T1, hGCGR (Homo sapiens, UniProt P47871); assay: Functional cAMP formation (HTRF) in HEK-293 clonal cells expressing hGCGR, 0.1% bovine casein, without or with 1.0% human serum albumin; details: 37° C.
T1 construct: expressed in transfected cells
T1 sequence (P47871 26-477): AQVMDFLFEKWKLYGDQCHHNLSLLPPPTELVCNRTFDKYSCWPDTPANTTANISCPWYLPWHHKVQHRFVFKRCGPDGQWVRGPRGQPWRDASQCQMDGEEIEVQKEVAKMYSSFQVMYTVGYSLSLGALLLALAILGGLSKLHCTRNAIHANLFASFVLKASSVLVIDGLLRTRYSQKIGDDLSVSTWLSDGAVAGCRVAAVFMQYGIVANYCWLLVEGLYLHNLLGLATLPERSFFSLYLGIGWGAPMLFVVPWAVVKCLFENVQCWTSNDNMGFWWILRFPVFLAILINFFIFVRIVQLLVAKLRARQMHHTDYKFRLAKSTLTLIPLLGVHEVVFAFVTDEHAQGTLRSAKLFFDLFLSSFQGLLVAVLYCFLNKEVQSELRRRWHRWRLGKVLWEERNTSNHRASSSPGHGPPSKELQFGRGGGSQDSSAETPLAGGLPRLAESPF
Procedure, shortened: (§1)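 Cells were stimulated with peptide for 30 min at 37° C, then lysed in buffer carrying cAMP-d2 and anti-cAMP Eu3+-cryptate for a competitive HTRF read after at least 60 min at room temperature. The 665/620 nm ratio was converted to nM cAMP against a standard curve.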

hGIPR = molecular target: T2, hGIPR (Homo sapiens, UniProt P48546); assay: Functional cAMP formation (HTRF) in HEK-293 clonal cells expressing hGIPR, 0.1% bovine casein, without or with 1.0% human serum albumin; details: for Emax: percent of maximal response to GIP(1-42)NH2; for EC50: cAMP
T2 construct: expressed in transfected cells
T2 sequence (P48546 22-466): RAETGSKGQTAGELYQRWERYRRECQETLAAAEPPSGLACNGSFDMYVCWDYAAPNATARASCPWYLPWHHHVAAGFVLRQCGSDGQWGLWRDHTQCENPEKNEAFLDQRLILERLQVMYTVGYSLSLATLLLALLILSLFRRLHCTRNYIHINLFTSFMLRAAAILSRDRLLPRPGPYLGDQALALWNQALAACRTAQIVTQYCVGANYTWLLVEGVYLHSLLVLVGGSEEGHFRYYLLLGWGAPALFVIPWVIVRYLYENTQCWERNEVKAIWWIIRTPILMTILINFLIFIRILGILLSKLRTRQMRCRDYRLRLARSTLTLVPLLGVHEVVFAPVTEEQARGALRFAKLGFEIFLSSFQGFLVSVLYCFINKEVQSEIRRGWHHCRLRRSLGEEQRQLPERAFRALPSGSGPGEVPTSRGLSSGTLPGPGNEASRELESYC
Procedure, shortened: as §1

hGLP-1R = hGLP-1R (Homo sapiens, UniProt P43220); assay: Functional cAMP formation (HTRF) in HEK-293 clonal cells expressing hGLP-1R, 0.1% bovine casein, without or with 1.0% human serum albumin; parameters: expressed in transfected cells; details: 37° C.; for Emax: percent of maximal response to GLP-1(7-36)NH2, read-out: hGLP-1R Emax, % ± SEM
hGLP-1R, sequence (P43220 24-463): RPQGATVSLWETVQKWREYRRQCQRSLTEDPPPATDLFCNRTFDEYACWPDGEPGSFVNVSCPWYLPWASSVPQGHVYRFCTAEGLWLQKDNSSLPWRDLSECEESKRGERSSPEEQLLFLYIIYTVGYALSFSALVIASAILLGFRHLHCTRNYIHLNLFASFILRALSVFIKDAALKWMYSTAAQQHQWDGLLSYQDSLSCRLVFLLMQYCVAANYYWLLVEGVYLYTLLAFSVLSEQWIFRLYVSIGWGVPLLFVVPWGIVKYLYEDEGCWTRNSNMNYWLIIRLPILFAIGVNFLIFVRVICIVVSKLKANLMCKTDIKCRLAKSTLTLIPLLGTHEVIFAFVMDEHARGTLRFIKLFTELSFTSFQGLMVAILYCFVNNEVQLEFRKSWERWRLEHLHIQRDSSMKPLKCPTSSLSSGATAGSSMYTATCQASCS
Procedure, shortened: as §1

[1] = cAMP, 0.1% bovine casein (no human serum albumin), geometric mean, read-out: hGCGR EC50, nM (SEM, n)
[2] = 37° C., 0.1% bovine casein (no human serum albumin), geometric mean, read-out: hGIPR EC50, nM (SEM, n)
[3] = cAMP, 0.1% bovine casein and 1.0% human serum albumin, geometric mean (SEM, n), read-out: hGCGR EC50, nM (SEM, n)
[4] = HEK293, cAMP, 37° C., 0.1% bovine casein and 1.0% human serum albumin, read-out: hGIPR Emax, % ± SEM
[5] = cAMP, 0.1% bovine casein (no human serum albumin), geometric mean, read-out: hGLP-1R EC50, nM (SEM, n)

For `CC[C@H](C)[C@H](NC(=O)[C@H](CC(C)C)NC(=O)[C@](C)(Cc1ccc(O)cc1)NC(=O)[C@@H](CCC(=O)O)NC(=O)[C@@H](NC(=O)[C@H](Cc1ccccc1)NC(=O)[C@H](CCC(=O)O)NC(=O)C(C)(C)NC(=O)[C@H](CCC(N)=O)NC(=O)[C@H](C)NC(=O)[C@H](CCCCNC(=O)COCCOCCNC(=O)CC[C@H](NC(=O)CCCCCCCCCOc1ccc(C(=O)O)cc1)C(=O)O)NC(=O)[C@H](CCCN)NC(=O)[C@H](CC(=O)O)NC(=O)[C@H](CC(C)C)NC(=O)[C@](C)(CC(C)C)NC(=O)[C@@H](NC(=O)C(C)(C)NC(=O)[C@@H](NC(=O)[C@H](CC(=O)O)NC(=O)[C@H](CO)NC(=O)[C@@H](NC(=O)[C@](C)(Cc1ccccc1F)NC(=O)[C@@H](NC(=O)CNC(=O)[C@H](CCC(=O)O)NC(=O)C(C)(C)NC(=O)[C@@H](N)Cc1ccc(O)cc1)[C@@H](C)O)[C@@H](C)O)C(C)C)[C@@H](C)CC)[C@@H](C)CC)C(=O)N[C@@H](CCCCNC(=O)COCCOCCNC(=O)CC[C@H](NC(=O)CCCCCCCCCOc1ccc(C(=O)O)cc1)C(=O)O)C(=O)NCC(=O)NCC(=O)N1CCC[C@H]1C(=O)N[C@@H](CO)C(=O)N[C@@H](CO)C(=O)NCC(=O)N[C@@H](C)C(=O)N1CCC[C@H]1C(=O)N1CCC[C@H]1C(=O)N1CCC[C@H]1C(=O)N[C@@H](CO)C(N)=O` [Example 379], the EC50 (hGCGR; hGCGR EC50, nM (SEM, n), cAMP, 0.1% bovine casein (no human serum albumin), geometric mean) was > 9950 nM, the EC50 (hGCGR; hGCGR EC50, nM (SEM, n), cAMP, 0.1% bovine casein and 1.0% human serum albumin, geometric mean (SEM, n)) was > 9950 nM and the Emax (hGIPR; HEK293, read-out: hGIPR Emax, % ± SEM, cAMP, 37° C., 0.1% bovine casein and 1.0% human serum albumin) was 90%. The Emax (hGIPR; HEK293, read-out: hGIPR Emax, % ± SEM, cAMP, 37° C., 0.1% bovine casein, arithmetic mean) was 97.5%, the EC50 (hGIPR; hGIPR EC50, nM (SEM, n), 37° C., 0.1% bovine casein (no human serum albumin), geometric mean) was 0.0167 nM and the EC50 (hGIPR; hGIPR EC50, nM (SEM, n), 37° C., 0.1% bovine casein and 1.0% human serum albumin, geometric mean (SEM, n)) was 11.6 nM. The EC50 (hGLP-1R; hGLP-1R EC50, nM (SEM, n), cAMP, 0.1% bovine casein (no human serum albumin), geometric mean) was 0.171 nM.
With `CCCC[C@H](NC(=O)[C@H](CC(=O)O)NC(=O)[C@H](CO)NC(=O)[C@@H](NC(=O)[C@](C)(Cc1ccccc1F)NC(=O)[C@@H](NC(=O)CNC(=O)[C@H](CCC(=O)O)NC(=O)C(C)(C)NC(=O)[C@@H](N)Cc1ccc(O)cc1)[C@@H](C)O)[C@@H](C)O)C(=O)N[C@@H](CO)C(=O)N[C@H](C(=O)N[C@@](C)(CC(C)C)C(=O)N[C@@H](CC(C)C)C(=O)N[C@@H](CC(=O)O)C(=O)N[C@@H](CCCN)C(=O)N[C@@H](CCCCNC(=O)COCCOCCNC(=O)COCCOCCNC(=O)CCCCCCCCCCCCC(=O)O)C(=O)N[C@@H](C)C(=O)N[C@@H](CCC(N)=O)C(=O)NC(C)(C)C(=O)N[C@@H](CCCCNC(=O)COCCOCCNC(=O)COCCOCCNC(=O)CCCCCCCCCCCCC(=O)O)C(=O)N[C@@H](Cc1ccccc1)C(=O)N[C@H](C(=O)N[C@H](CCC(=O)O)C(=O)N[C@@](C)(Cc1ccc(O)cc1)C(=O)N[C@@H](CC(C)C)C(=O)N[C@H](C(=O)N[C@@H](CCC(=O)O)C(=O)NCC(=O)NCC(=O)N1CCC[C@H]1C(=O)N[C@@H](CO)C(=O)N[C@@H](CO)C(=O)NCC(=O)N[C@@H](C)C(=O)N1CCC[C@H]1C(=O)N1CCC[C@H]1C(=O)N1CCC[C@H]1C(=O)N[C@@H](CO)C(N)=O)[C@@H](C)CC)[C@@H](C)CC)[C@@H](C)CC` [Example 271] the EC50 (hGCGR; 0.1% bovine casein and 1.0% human serum albumin, geometric mean, read-out: hGCGR EC50, nM (SEM, n)) was > 9950 nM, the EC50 (hGCGR; [1]) was > 9950 nM and the Emax (hGIPR; HEK293, 0.1% bovine casein and 1.0% human serum albumin, 37° C., read-out: hGIPR Emax, % ± SEM) was 97.3%. For the same compound, the EC50 (hGIPR; [2]) was 0.0186 nM, the EC50 (hGLP-1R; 0.1% bovine casein and 1.0% human serum albumin, geometric mean, read-out: hGLP-1R EC50, nM (SEM, n)) was 10.2 nM and the Emax (hGLP-1R; HEK293, 0.1% bovine casein and 1.0% human serum albumin) was 122%.
`CCCCCCCCCCCC(=O)N[C@@H](CCC(=O)NCCOCCOCC(=O)NCCOCCOCC(=O)NCCCC[C@H](NC(=O)[C@H](CCCN)NC(=O)[C@H](CC(=O)O)NC(=O)[C@H](CC(C)C)NC(=O)[C@](C)(CC(C)C)NC(=O)[C@@H](NC(=O)C(C)(C)NC(=O)[C@H](Cc1ccncc1)NC(=O)[C@H](CC(=O)O)NC(=O)[C@H](CO)NC(=O)[C@@H](NC(=O)[C@](C)(Cc1ccccc1F)NC(=O)[C@@H](NC(=O)CNC(=O)[C@H](CCC(=O)O)NC(=O)C(C)(C)NC(=O)[C@@H](N)Cc1ccc(O)cc1)[C@@H](C)O)[C@@H](C)O)[C@@H](C)CC)C(=O)N[C@@H](C)C(=O)N[C@@H](CCC(N)=O)C(=O)NC(C)(C)C(=O)N[C@@H](CCCCNC(=O)COCCOCCNC(=O)COCCOCCNC(=O)CC[C@H](NC(=O)CCCCCCCCCCC)C(=O)O)C(=O)N[C@@](C)(Cc1ccccc1)C(=O)N[C@H](C(=O)N[C@H](CCC(=O)O)C(=O)N[C@@](C)(Cc1ccc(O)cc1)C(=O)N[C@@H](CC(C)C)C(=O)N[C@H](C(=O)N[C@@H](CCC(=O)O)C(=O)NCC(=O)NCC(=O)N1CCC[C@H]1C(=O)N[C@@H](CO)C(=O)N[C@@H](CO)C(=O)NCC(=O)N[C@@H](C)C(=O)N1CCC[C@H]1C(=O)N1CCC[C@H]1C(=O)N1CCC[C@H]1C(=O)N[C@@H](CO)C(N)=O)[C@@H](C)CC)[C@@H](C)CC)C(=O)O` [Example 430] (H-Y[Aib]EGT[αMePhe(2-F)]TSD[4Pal][Aib]I[αMeL]LD[Orn]K([AEEA-AEEA-γGlu-Lauroyl])AQ[Aib]K([AEEA-AEEA-γGlu-Lauroyl])[αMeF]I[dE][αMeY]LIEGGPSSGAPPPS-NH2) was tested, and the EC50 (hGCGR; [1]) was > 9950 nM, the EC50 (hGCGR; [3]) was > 9950 nM and the Emax (hGIPR; [4]) was 91.5%. The EC50 (hGIPR; [2]) was 0.0175 nM, the EC50 (hGIPR; 37° C., 0.1% bovine casein and 1.0% human serum albumin, geometric mean (SEM, n), read-out: hGIPR EC50, nM (SEM, n)) was 1.09 nM and the Emax (hGLP-1R; HEK293, cAMP, 0.1% bovine casein and 1.0% human serum albumin) was 88.5%. For the same compound, the Emax (hGLP-1R; HEK293, cAMP, 0.1% bovine casein, arithmetic mean) was 93.1% and the EC50 (hGLP-1R; [5]) was 0.342 nM.
`CC[C@H](C)[C@H](NC(=O)[C@H](CC(C)C)NC(=O)[C@](C)(Cc1ccc(O)cc1)NC(=O)[C@H](CCCCNC(=O)COCCOCCNC(=O)COCCOCCNC(=O)CC[C@H](NC(=O)CCCCCCCCCCCCC(=O)O)C(=O)O)NC(=O)[C@@H](NC(=O)[C@H](Cc1ccccc1)NC(=O)[C@H](CCC(=O)O)NC(=O)C(C)(C)NC(=O)[C@H](CCC(N)=O)NC(=O)[C@H](C)NC(=O)[C@H](CCC(N)=O)NC(=O)[C@H](CCCN)NC(=O)[C@H](CC(=O)O)NC(=O)[C@H](CC(C)C)NC(=O)[C@](C)(CC(C)C)NC(=O)[C@@H](NC(=O)C(C)(C)NC(=O)[C@H](Cc1ccc(O)cc1)NC(=O)[C@H](CC(=O)O)NC(=O)[C@H](CO)NC(=O)[C@@H](NC(=O)[C@](C)(Cc1ccccc1F)NC(=O)[C@@H](NC(=O)CNC(=O)[C@H](CCC(=O)O)NC(=O)C(C)(C)NC(=O)[C@@H](N)Cc1ccc(O)cc1)[C@@H](C)O)[C@@H](C)O)[C@@H](C)CC)[C@@H](C)CC)C(=O)N[C@@H](CCCCNC(=O)COCCOCCNC(=O)COCCOCCNC(=O)CC[C@H](NC(=O)CCCCCCCCCCCCC(=O)O)C(=O)O)C(=O)NCC(=O)NCC(=O)N1CCC[C@H]1C(=O)N[C@@H](CO)C(=O)N[C@@H](CO)C(=O)NCC(=O)N[C@@H](C)C(=O)N1CCC[C@H]1C(=O)N1CCC[C@H]1C(=O)N1CCC[C@H]1C(=O)N[C@@H](CO)C(N)=O` [Example 412] was tested, and the EC50 (hGCGR; [1]) was > 9950 nM, the EC50 (hGCGR; [3]) was > 9950 nM and the Emax (hGIPR; [4]) was 87.5%. The Emax (hGIPR; HEK293, cAMP, 37° C., 0.1% bovine casein, arithmetic mean, read-out: hGIPR Emax, % ± SEM) was 95.4%, the EC50 (hGIPR; [2]) was 0.0108 nM and the EC50 (hGLP-1R; [5]) was 0.16 nM. For the same compound, the EC50 (hGLP-1R; cAMP, 0.1% bovine casein and 1.0% human serum albumin, geometric mean (SEM, n), read-out: hGLP-1R EC50, nM (SEM, n)) was 18.3 nM.
